Paper doi:10.1101/2024.08.25.609621 (bioRxiv, 2024)
pIC50, pKi: −log10 of the molar value. Several values for one entry are separate records, joined by “and”; a condition that tells them apart may be missing. Equal entries are not always repeated. Where two headings read alike, the source gives them in different places.

Experiments:
[1] = biological target: SARS-CoV-2 NSP3 macrodomain (Mac1) (Severe acute respiratory syndrome coronavirus 2, UniProt P0DTD1); assay: biochemical; type: binding; settings: for SARS CoV-2 macrodomain HTRF assay: Hillslope: dose-response fit
[2] = biological target: SARS-CoV-2 NSP3 macrodomain (Mac1), P43 crystal form (Severe acute respiratory syndrome coronavirus 2, UniProt P0DTD1); type: binding; settings: for 1-BDC: PanDDA background density correction; for Total number of conformations: ligand conformations modeled in Mac1 crystal structure; for X-ray crystallography: Binding site: site where the ligand is bound in the X-ray crystal structure
[3] = SARS CoV-2 macrodomain HTRF assay, dose-response
[4] = Single dose, concentration 200 μM, read-out: Average % competition
[5] = preliminary screen, compound at 200 μM, mean of 3-4 technical replicates, read-out: % competition in HTRF assay
[6] = X-ray crystal structure determined (TRUE)
[7] = crystal soak 10 mM, P43 crystals
[8] = crystal soak 10 mM, DMSO background map
[9] = occupancy estimate from PanDDA 1-BDC
[10] = site of ligand in X-ray crystal structure
[11] = occupancy estimate from PanDDA BDC
[12] = Single dose, concentration 200 μM, read-out: SARS CoV-2 macrodomain HTRF assay: Average % competition
[13] = soak concentration 10 mM, DMSO background map
[14] = crystal soak, soak concentration 10 mM, DMSO background map

| Compound | Hill slope ([1]; HTRF dose-response fit, Mac1) | inhibition at 200 µM [1, 5] [%] | 1-BDC [2] | Pandda run, overall: Hit [2, 7] | Pandda run, overall: Modeled [2, 7] | PanDDA run, DMSO background map: 1-BDC [2, 8] | PanDDA run, DMSO background map: Hit [2, 8] | Total number of conformations [2] | 2*(1-BDC) (%) [2, 9] [%] | SARS CoV-2 macrodomain HTRF assay: Hillslope [1] | Occupancy difference (refined_occupancy - 2*(1-BDC)) [2] | Refined ligand occupancy (%) [2] [%] | PanDDA run, DMSO background map: 1-BDC ([2]; DMSO background map, event 1) | 2*(1-BDC) (%) [2, 11] [%] | X-ray crystallography: Binding site [2] | further results |
| --- | --- | --- | --- | --- | --- | --- | --- | --- | --- | --- | --- | --- | --- | --- | --- | --- |
| CCC(CC)(CO)Nc1ncnc2[nH]ccc12 [AVI-3695] | 1.3 | 89 | 0.12 | TRUE | TRUE | 0.12 | TRUE | 2 | 24 |  |  |  |  |  |  | Hill slope [1, 3]: 1.3; inhibition at 200 µM [1, 4]: 89%; X-ray crystal structure [2, 6]: TRUE; Binding site [2, 10]: Adenosine |
| OC1(CNc2ncnc3[nH]ccc23)COC2CC1C2 (stereo not shown) [AVI-4313] | 1.2 |  | 0.19 |  |  |  |  | 1 |  | 1.2 | 0 | 38 | 0.19 and 0.2 | 38 | Adenosine |  |
| O[C@H]1CC[C@H]2CCN(c3ncnc4[nH]ccc34)[C@H]21 [AVI-5997] | 1.2 |  | 0.29 |  |  |  |  | 1 |  | 1.2 | 12 | 70 | 0.28 and 0.29 | 58 | Adenosine |  |
| OC1(CNc2ncnc3[nH]ccc23)CC2CCC1CC2 (stereo not shown) [AVI-4320] | 1.1 |  | 0.14 |  |  |  |  | 1 |  | 1.1 | 0 | 28 | 0.14 | 28 | Adenosine |  |
| OCC1C2CCC(C2)N1c1ncnc2[nH]ccc12 (stereo not shown) [AVI-3713] | 1.1 | 92 | 0.29 |  |  |  |  | 1 | 58 | 1.1 |  |  |  |  | Adenosine | inhibition at 200 µM [1, 12]: 92%; Pandda run, overall: Modeled ([2]; crystal soak, soak concentration 10 mM): TRUE; Pandda run, overall: Hit ([2]; crystal soak, soak concentration 10 mM, TRUE = ligand hit): TRUE; PanDDA run, DMSO background map: 1-BDC [2, 13]: 0.29; PanDDA run, DMSO background map: Hit [2, 13]: TRUE |
| c1ccc(-n2nnnc2CSc2nnc(NC3CC3)s2)cc1 [AVI-286] |  |  | 0.11 |  |  |  |  | 1 | 22 |  |  |  |  |  |  | Average % competition ([1]; Single dose, 200 μM, mean of three technical replicates): 0%; X-ray crystal structure ([2]; TRUE = crystal structure with ligand determined): TRUE; Pandda run, overall: Hit ([2]; crystal soak, soak concentration 10 mM, P43 crystals, TRUE = ligand-binding event identified): TRUE; PanDDA run, DMSO background map: Hit [2, 14]: TRUE; PanDDA run, DMSO background map: Modeled [2, 14]: TRUE; PanDDA run, DMSO background map: 1-BDC ([2]; crystal soak, soak concentration 10 mM, DMSO background map, event 1): 0.11; Pandda run, overall: Modeled ([2]; crystal soak, soak concentration 10 mM, TRUE = ligand modeled): TRUE; Binding site ([2]; site of Mac1 where ligand bound in crystal structure): Distal |
| O=S1(=O)CCCC(O)(CNc2ncnc3[nH]ccc23)C1 (stereo not shown) [AVI-4317] | 1.2 |  | 0.43 |  |  |  |  | 1 |  | 1.2 | 14 | 100 | 0.43 and 0.45 | 86 | Adenosine | Comment ([2]; comment on ligand modeling / Phe132 loop density): High occupancy, use manual refinement, DMSO |
| CCC(C)(CO)Nc1ncnc2[nH]ccc12 (stereo not shown) [AVI-3697] | 1.2 | 91 | 0.16 | TRUE | TRUE | 0.16 | TRUE | 1 | 32 |  |  |  |  |  |  | Hill slope [1, 3]: 1.2; inhibition at 200 µM [1, 4]: 91%; X-ray crystal structure [2, 6]: TRUE; Binding site [2, 10]: Adenosine |
| CCC(O)[C@H]1CCCN1c1ncnc2[nH]ccc12 (stereo partly shown) [AVI-3666] | 1.3 | 87 | 0.3 | TRUE | TRUE | 0.3 | TRUE | 1 | 60 | 1.3 |  |  |  |  | Adenosine | inhibition at 200 µM [1, 12]: 87%; pIC50 ([1]; confirmatory dose-response, best fit value of 3-4 technical replicates, Fig. S3 prints the 95% confidence interval in brackets, read-out: HTRF IC50): 4.34; pKi ([1]; dose-response, read-out: SARS CoV-2 macrodomain HTRF assay: Ki): 4.37 |
